Experimental findings from US7163946B2 (Ligand Pharmaceuticals Incorporated, priority 2002, dated 2007) are described below.

Molecules are shown by their SMILES. Where two headings read alike, the source gives them in different places.

One experiment addresses T1, hPR (Homo sapiens, UniProt P06401).
T1 sequence (P06401 1-933): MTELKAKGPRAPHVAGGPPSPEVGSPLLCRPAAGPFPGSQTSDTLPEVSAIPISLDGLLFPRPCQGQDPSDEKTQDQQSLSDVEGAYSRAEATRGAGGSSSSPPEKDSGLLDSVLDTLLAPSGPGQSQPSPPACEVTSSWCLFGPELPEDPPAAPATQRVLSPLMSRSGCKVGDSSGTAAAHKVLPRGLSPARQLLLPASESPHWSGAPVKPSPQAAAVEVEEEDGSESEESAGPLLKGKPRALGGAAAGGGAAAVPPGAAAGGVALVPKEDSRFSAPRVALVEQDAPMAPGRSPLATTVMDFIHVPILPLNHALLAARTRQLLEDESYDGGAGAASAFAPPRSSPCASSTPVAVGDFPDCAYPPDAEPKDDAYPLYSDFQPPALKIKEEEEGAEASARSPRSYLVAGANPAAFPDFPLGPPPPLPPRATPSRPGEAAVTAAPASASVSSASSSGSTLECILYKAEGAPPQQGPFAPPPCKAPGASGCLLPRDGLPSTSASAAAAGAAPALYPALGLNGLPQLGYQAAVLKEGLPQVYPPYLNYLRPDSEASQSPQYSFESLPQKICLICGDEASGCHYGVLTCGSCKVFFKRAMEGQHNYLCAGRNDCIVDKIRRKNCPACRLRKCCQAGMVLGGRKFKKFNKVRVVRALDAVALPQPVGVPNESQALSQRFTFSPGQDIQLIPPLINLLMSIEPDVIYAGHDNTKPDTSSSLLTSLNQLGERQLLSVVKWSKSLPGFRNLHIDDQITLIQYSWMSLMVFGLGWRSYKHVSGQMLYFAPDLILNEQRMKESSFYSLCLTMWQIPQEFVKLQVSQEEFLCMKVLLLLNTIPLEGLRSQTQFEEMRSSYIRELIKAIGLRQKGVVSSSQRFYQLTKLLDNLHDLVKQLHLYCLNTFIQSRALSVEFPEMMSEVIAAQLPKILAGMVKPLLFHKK
The experiment in a line: hPR cotransfection assay in CV-1 cells, agonist mode. The experiment is classed as cell-based. As to conditions: for Emax: CV-1, CV-1 cells, relative to maximal response of progesterone as 100%, read-out: hPR Agonist CV-1 Cells Eff. (%).

For a further experiment, the target named is T2, hGR (Homo sapiens, UniProt P04150).
T2 sequence (P04150 1-777): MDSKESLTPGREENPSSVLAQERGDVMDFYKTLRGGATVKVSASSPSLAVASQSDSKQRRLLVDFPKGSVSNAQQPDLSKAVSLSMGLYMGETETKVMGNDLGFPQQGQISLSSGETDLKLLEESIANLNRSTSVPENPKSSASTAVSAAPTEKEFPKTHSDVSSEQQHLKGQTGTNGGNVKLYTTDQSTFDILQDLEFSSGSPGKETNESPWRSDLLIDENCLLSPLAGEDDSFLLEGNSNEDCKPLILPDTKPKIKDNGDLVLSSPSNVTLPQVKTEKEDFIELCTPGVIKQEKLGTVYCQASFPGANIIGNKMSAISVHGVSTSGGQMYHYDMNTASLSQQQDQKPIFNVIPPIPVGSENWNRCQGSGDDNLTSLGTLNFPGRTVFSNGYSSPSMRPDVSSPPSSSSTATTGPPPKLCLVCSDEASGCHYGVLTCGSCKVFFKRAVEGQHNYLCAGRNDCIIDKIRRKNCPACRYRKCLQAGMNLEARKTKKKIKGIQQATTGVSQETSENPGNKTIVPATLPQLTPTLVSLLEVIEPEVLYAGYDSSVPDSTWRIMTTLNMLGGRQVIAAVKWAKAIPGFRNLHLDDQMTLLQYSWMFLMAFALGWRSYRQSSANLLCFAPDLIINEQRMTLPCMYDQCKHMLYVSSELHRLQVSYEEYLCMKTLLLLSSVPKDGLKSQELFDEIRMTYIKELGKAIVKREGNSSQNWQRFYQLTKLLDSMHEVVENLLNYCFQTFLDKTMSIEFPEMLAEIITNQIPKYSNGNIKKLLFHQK
Kind of experiment: hGR cotransfection assay (potency ratio to hPR). As to conditions: receptor-selectivity potency ratio, cotransfection assays. The experiment is classed as cell-based.

For experiment [1], the target named is T3, human estrogen receptor (hER) (Homo sapiens, UniProt P03372).
T3 sequence (P03372 1-595): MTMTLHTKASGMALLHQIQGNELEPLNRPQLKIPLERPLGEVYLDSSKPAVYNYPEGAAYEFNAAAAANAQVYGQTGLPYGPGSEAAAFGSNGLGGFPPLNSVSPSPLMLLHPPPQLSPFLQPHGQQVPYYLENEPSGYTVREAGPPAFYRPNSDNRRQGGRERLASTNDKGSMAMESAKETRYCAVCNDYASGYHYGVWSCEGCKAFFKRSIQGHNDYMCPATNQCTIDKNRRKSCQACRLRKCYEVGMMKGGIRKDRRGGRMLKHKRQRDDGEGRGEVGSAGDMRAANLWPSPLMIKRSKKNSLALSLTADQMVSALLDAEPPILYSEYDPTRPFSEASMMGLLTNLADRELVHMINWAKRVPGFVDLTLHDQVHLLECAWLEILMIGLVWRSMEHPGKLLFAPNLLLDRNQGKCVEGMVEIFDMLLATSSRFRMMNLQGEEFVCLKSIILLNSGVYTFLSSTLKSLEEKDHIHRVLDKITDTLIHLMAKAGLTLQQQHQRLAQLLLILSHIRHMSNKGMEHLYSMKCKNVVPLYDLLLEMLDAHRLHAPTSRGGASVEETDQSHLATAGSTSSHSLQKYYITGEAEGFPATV
The experiment in a line: hER cotransfection assay (potency ratio to hPR). Type of experiment: cell-based. The conditions noted are these: receptor-selectivity potency ratio, cotransfection assays.
Experimental: (§1) Antagonist efficacy was determined as a function (%) of maximal inhibition of a reference agonist at EC50 concentration. All the cotransfection experiments were carried out in 96-well plates by automation (Beckman Biomomek automated workstation).

Another experiment concerns immature rabbits. Kind of experiment: McPhail (Clauberg) rabbit assay of progestational activity. The conditions noted are these: Oryctolagus cuniculus; estradiol-primed immature rabbits; glandular changes of the uterus; read-out: potency (MAD in mg/kg), minimum active dose. The experiment is classed as in vivo.
Setting [2] is: CV-1 cells, read-out: hPR Agonist CV-1 Cells EC50.
Setting [3] is: Tables 3 and 4, values without footnote, read-out: hPR agonist potencies (EC50 in nM) in the cotransfection assay.

Experimental for hGR: as §1

A word on the EC50: it is the concentration giving half of the maximal effect. Take `CC1=CC(C)(C)Nc2ccc3c(c21)C(c1ccccc1)Oc1c(F)cc(F)cc1-3` (racemic) [Compound 33, (±)-7,9-difluoro-5-phenyl-1,2-dihydro-2,2,4-trimethyl-5H-chromeno[3,4-f]quinoline]: the Emax at hPR was determined as 85%. For the same molecule, the EC50 on hPR (setting [2]) and at hPR (setting [3]) was 3.5 nM each time. In addition, the “hGR EC50 or IC50/hPR EC50” value at hGR was determined as 10. For the same molecule, the “hER EC50 or IC50/hPR EC50” value in experiment [1] is reported as over 1000.

As to `CC1=CC(C)(C)Nc2ccc3c(c21)C(c1cccc(C)c1)Oc1c(F)cc(F)cc1-3` (racemic) [Compound 34, (±)-7,9-difluoro-5-(3-methylphenyl)-1,2-dihydro-2,2,4-trimethyl-5H-chromeno[3,4-f]quinoline], the Emax on hPR was found to be 114%. For the same molecule, the concentration giving a half-maximal response (EC50) at hPR (setting [2]) and on hPR (setting [3]) was 1.2 nM in each case. Also, the “hGR EC50 or IC50/hPR EC50” value at hGR is on record as over 1000. Also, the “hER EC50 or IC50/hPR EC50” value in experiment [1] is recorded as over 1000. Further, in the experiment with immature rabbits, the minimal effective dose turned out to be 1 mg/kg.

Regarding `CC1=CC(C)(C)Nc2ccc3c(c21)C(c1ccc(Cl)c(C)c1)Oc1c(F)cc(F)cc1-3` (racemic) [Compound 37, (±)-7,9-difluoro-5-(4-chloro-3-methylphenyl)-1,2-dihydro-2,2,4-trimethyl-5H-chromeno[3,4-f]quinoline], the Emax on hPR stood at 89%. For the same molecule, the EC50 on hPR (setting [2]) and on hPR (setting [3]) was 1.24 nM each time. In addition, the “hGR EC50 or IC50/hPR EC50” value on hGR was 54. Moreover, in experiment [1], the “hER EC50 or IC50/hPR EC50” value was over 1000.

`CC1=CC(C)(C)Nc2ccc3c(c21)C(c1cccc(Cl)c1)Oc1c(F)cc(F)cc1-3` (racemic) [Compound 41, (±)-7,9-difluoro-5-(3-chlorophenyl)-1,2-dihydro-2,2,4-trimethyl-5H-chromeno[3,4-f]quinoline]: the Emax on hPR was 146%. For the same molecule, the EC50 on hPR (setting [2]) and on hPR (setting [3]) was 1.87 nM in each case. Further, the “hGR EC50 or IC50/hPR EC50” value at hGR is on record as 105. Further, the “hER EC50 or IC50/hPR EC50” value in experiment [1] is over 1000. The minimal effective dose in the experiment with immature rabbits is 0.75 mg/kg.

Regarding `CC1=CC(C)(C)Nc2ccc3c(c21)C(c1cc2ccccc2s1)Oc1c(F)cc(F)cc1-3` (racemic) [Compound 63, (±)-7,9-difluoro-5-(benzo[b]thien-2-yl)-1,2-dihydro-2,2,4-trimethyl-5H-chromeno[3,4-f]quinoline], at hPR, the Emax was determined as 154%. Moreover, the 50% effective concentration (EC50) at hPR (setting [2]) was 2.3 nM. Moreover, at hGR, the “hGR EC50 or IC50/hPR EC50” value came out at 8.8. Moreover, the “hER EC50 or IC50/hPR EC50” value in experiment [1] was found to be 685.

Take `CC#CC1Oc2c(F)cc(F)cc2-c2ccc3c(c21)C(C)=CC(C)(C)N3` (racemic) [Compound 74, (±)-7,9-difluoro-5-(1-propynyl)-1,2-dihydro-2,2,4-trimethyl-5H-chromeno[3,4-f]quinoline]: on hPR, the Emax amounted to 89%. Further, the EC50 on hPR (setting [2]) is 0.7 nM. Moreover, the “hGR EC50 or IC50/hPR EC50” value at hGR is on record as over 1000. Moreover, the “hER EC50 or IC50/hPR EC50” value in experiment [1] was over 1000.

Consider `CC1=CC(C)(C)Nc2ccc3c(c21)/C(=C/c1ccccc1)Oc1c(F)cc(F)cc1-3` [Compound 10, 7,9-difluoro-5(Z)-benzylidene-1,2-dihydro-2,2,4-trimethyl-5H-chromeno[3,4-f]quinoline], for which the Emax at hPR turned out to be 153%. The concentration giving a half-maximal response (EC50) at hPR (setting [2]) and on hPR (setting [3]) was 4.9 nM throughout. Moreover, at hGR, the “hGR EC50 or IC50/hPR EC50” value is given as 290. Besides, the “hER EC50 or IC50/hPR EC50” value in experiment [1] was over 1000.

As for `CC1=CC(C)(C)Nc2ccc3c(c21)/C(=C/c1ccncc1)Oc1c(F)cc(F)cc1-3` [Compound 14, 7,9-difluoro-5(Z)-(4-picolylidene)-1,2-dihydro-2,2,4-trimethyl-5H-chromeno[3,4-f]quinoline], the Emax at hPR turned out to be 103%. Moreover, the 50% effective concentration (EC50) on hPR (setting [2]) and on hPR (setting [3]) was 7.4 nM in each case. Also, the “hGR EC50 or IC50/hPR EC50” value on hGR is recorded as 365. Also, the “hER EC50 or IC50/hPR EC50” value in experiment [1] is over 1000.

`CC1=CC(C)(C)Nc2ccc3c(c21)/C(=C/c1cccc(F)c1)Oc1c(F)cc(F)cc1-3` [Compound 15, 7,9-difluoro-5(Z)-(3-fluorobenzylidene)-1,2-dihydro-2,2,4-trimethyl-5H-chromeno[3,4-f]quinoline]: the Emax on hPR was 191%. For the same molecule, the concentration for a half-maximal effect (EC50) on hPR (setting [2]) and on hPR (setting [3]) was 3.8 nM throughout. At hGR, the “hGR EC50 or IC50/hPR EC50” value was 30. Further, in experiment [1], the “hER EC50 or IC50/hPR EC50” value is given as over 1000. Further, in the experiment on immature rabbits, the minimal effective dose was 0.18 mg/kg.

For `COc1ccccc1/C=C1\Oc2c(F)cc(F)cc2-c2ccc3c(c21)C(C)=CC(C)(C)N3` [Compound 18, 7,9-difluoro-5(Z)-(2-methoxybenzylidene)-1,2-dihydro-2,2,4-trimethyl-5H-chromeno[3,4-f]quinoline], the Emax on hPR amounted to 142%. In addition, the 50% effective concentration (EC50) at hPR (setting [2]) and on hPR (setting [3]) was 1.3 nM in each case. Also, the “hGR EC50 or IC50/hPR EC50” value on hGR is on record as 77. Moreover, the “hER EC50 or IC50/hPR EC50” value in experiment [1] is over 1000. Further, the minimal effective dose with immature rabbits was found to be 2 mg/kg.

Turning to `CC1=CC(C)(C)Nc2ccc3c(c21)/C(=C/c1ccncc1C)Oc1c(F)cc(F)cc1-3` [Compound 20, 7,9-difluoro-5(Z)-(3-methyl-4-picolylidene)-1,2-dihydro-2,2,4-trimethyl-5H-chromeno[3,4-f]quinoline], at hPR, the Emax was 147%. Further, the EC50 at hPR (setting [2]) and on hPR (setting [3]) was 2.8 nM in each case. The “hGR EC50 or IC50/hPR EC50” value at hGR was 27. In addition, the “hER EC50 or IC50/hPR EC50” value in experiment [1] is over 1000. Further, the minimal effective dose with immature rabbits was determined as 0.25 mg/kg.

On to `CC1=CC(C)(C)Nc2ccc3c(c21)/C(=C/Br)Oc1c(F)cc(F)cc1-3` [Compound 29, 7,9-difluoro-5(Z)-bromomethylidene-1,2-dihydro-2,2,4-trimethyl-5H-chromeno[3,4-f]quinoline], for which the Emax on hPR came out at 191%. For the same molecule, the EC50 on hPR (setting [2]) was determined as 2.3 nM. For the same molecule, the “hGR EC50 or IC50/hPR EC50” value on hGR is reported as 83. Further, the “hER EC50 or IC50/hPR EC50” value in experiment [1] is listed as over 1000.

On to `CC1=CC(C)(C)Nc2ccc3c(c21)/C(=C/c1ccsc1)Oc1c(F)cc(F)cc1-3` [Compound 30, 7,9-difluoro-5(Z)-(3-thienylmethylidene)-1,2-dihydro-2,2,4-trimethyl-5H-chromeno[3,4-f]quinoline], for which the Emax at hPR was 186%. Also, the EC50 at hPR (setting [2]) was determined as 5.3 nM. The “hGR EC50 or IC50/hPR EC50” value at hGR was found to be 19. For the same molecule, in experiment [1], the “hER EC50 or IC50/hPR EC50” value is recorded as over 1000.
